According to publication PMC6760275, “Comparison of Zebrafish Larvae and hiPSC Cardiomyocytes for Predicting Drug-Induced Cardiotoxicity in Humans” (Toxicological Sciences, 2019):
“Also recorded” adds a separate entry of the source. Where two headings read alike, the source gives them in different places.

Key:
[1] = tested on: zebrafish larvae; assay: ZeCardio cardiotoxicity screen in zebrafish larvae (heart and blood flow imaging)
Method: Zebrafish (Danio rerio) were mated, staged, and raised by standard methods ([Westerfield, 2000]). The library screen was performed on double transgenic larvae for Tg[cmlc2: GFP] ([Huang et al., 2003]) and Tg[gata1: DsRed] ([Traver et al., 2003]). Tg[cmlc2: GFP] expresses green fluorescent protein (GFP) in cardiomyocytes and Tg[gata1: DsRed] expresses DsRed fluorescent protein in a subset of erythrocytes.
Determination of NOEC was achieved through an Acute Toxicity test performed on AB wildtype larvae from 3 to 96 hpf, as previously described ([Cornet et al., 2017]) (see Supplementary Table 1 for NOEC data for each compound). For the cardiotoxic drug screening, double transgenic zebrafish larvae for Tg[cmlc2: GFP] and Tg[gata1: DsRed] were collected and raised in Embryo Medium (E3/60× Stock: 34.4 g NaCl, 1.52 g KCl, 5.8 g CaCl2·2H2O, 9.8 g MgSO4·7H2O, add 18 MOhm double distilled water up to 2000 ml; pH: 7.2) at 28.5°C in a 12 h light/12 h dark cycle. From 24 hpf onward, larvae were incubated with N-PhenylThioUrea (PTU) (Sigma-Aldrich, No. P7629) 0.2 mM to reduce pigmentation. Embryo medium was changed every day until 5 dpf, when double positive transgenic larvae were selected. […] Larvae were immersed in E3 with PTU 0.2 mM and Tricaine methanesulfonate (Sigma-Aldrich, No. E10521) at […] working concentration and distributed in 96-well plates in 100 µl per well. Then, 100 µl of compound solution was added at double NOEC concentration to reach the working concentration per compound: NOEC, DMSO 1%, and the final volume of 200 µl per larva per well. Negative control larvae were incubated in 200 µl 1% DMSO. Embryos were allowed to incubate in the compound solution for 4 h before. The developmental stage selected for analysis (5 dpf) was chosen because heart electrophysiological maturation and heart rhythm are stabilized from 96 hpf ([Tessadori et al., 2012]). One hundred and twenty hours post fertilization constitutes the latest stage to perform analysis after heart maturation and with conformation to ethical guidelines. Finally, the drug incubation time of 4 h was selected according to a previously established experimental set up ([Cornet et al., 2017]). Twelve embryos (1 embryo/well) were imaged for each compound, and the screening of the whole library was distributed over 15 experimental days. On each experimental day, 8 molecules were imaged: 7 drugs and the negative control 1% DMSO, to allow intraexperimental comparison.
The hardware conforming the screening platform allows zebrafish larvae sampling from multi-well plates to allow their position and automatic orientation in a glass capillary under a microscope to perform high-throughput imaging acquisition. It integrates 2 commercially available systems. First, an integrated VAST system (Union Biometrica) ([Pardo-Martin et al., 2010]), which consists of 2 complementary devices: (1) LP sampler, an automated fluid system capable of aspirating small to medium sized particles from multi-well plates and delivering them intact to the VAST BioImager, and (2) VAST BioImager, an automated fluid system, which positions zebrafish larva in a glass capillary. Once introduced in the glass capillary, the larva is recognized by an integrated imaging system and rotated to the desired angle for external imaging. Second, a Leica DM6B upright widefield microscope with a motorized Z-stage and Leica DFC9000 GTC (4.2 megapixel) CMOS camera particularly suited for high-speed fluorescent imaging applications achieves the fluorescent time-lapse imaging. The 2 systems, VAST and Leica microscope, communicate to coordinate the tasks of sampling, positioning, and imaging. To control the microscope, the LASX software (Leica) was used. To focus fluorescent structures in z-direction, the Autofocus function in LASX was used.

[2] = cited from earlier work; for cardiovascular clinical adverse effects: parent drug and/or metabolites, ref Zhang et al., 2012; for market withdrawal due to cardiovascular adverse effects: ref Onakpoya et al., 2016, Siramshetty et al.
[3] = tested on: Pluricyte hiPSC-CMs; assay: hiPSC-CM calcium transient FLIPR assay; settings: 10 μM; for detection as cardiotoxic in hiPSC-CMs (hiPSC-CM positive): 0.1% DMSO, any feature significant at any time point (5, 30, 90 min); for time point of detection in hiPSC-CMs: T1 5 min, T2 30 min, T3 90 min after compound addition
Method: hiPSC-CMs beat spontaneously under culture conditions and the beating pattern can be addressed by Ca^2+ dyes reporting the intracellular Ca^2+ concentration that is then measured by the fluorometric imaging plate reader (FLIPR).
This standard protocol was changed at 2 steps: hiPSC-CMs were not spun after thawing and the final concentration was 15 000 instead of 10 000 cells/well.
Twenty microliters of Ca-6 dye solution was added to each well of the assay plate and the assay plate was incubated for 2 h at 37°C, 5% CO2 in the dark. […] After baseline measurement, compounds were added and the fluorescence signal was measured 5, 30, and 90 min after compound treatment. Fifteen microliters of compound dilution was transferred from a compound source plate (40 μM, 0.4% DMSO) to the assay plate (already containing 25 μl cells and 20 μl Ca-6 dye) using FLIPR. The final compound concentration was 10 μM and 0.1% DMSO. Between each measurement the plate was returned to the same incubator. Five extracted features were quantified: beating frequency/beats per minute (bpm), amplitude (ampl), area under the curve (auc), peak width (pkw), and peak width at 10% amplitude (ppkw) are measures informing about the depolarization and repolarization kinetics. […] Each compound was assessed as triplicate at 3 time points after incubation (T1: 5 min, T2: 30 min, T3: 90 min). A measurement was taken prior to compound addition (baseline, not shown). As there was little variability in the baseline measurement, it was not necessary to normalize against baseline. An average of the data of each feature for each time point was fed into the statistical model to determine significant effects.
The LMMs include random effects accounting for the different sources of variation from the experimental design.

[4] = tested on: AB wildtype larvae; assay: Acute Toxicity test for NOEC determination in AB wildtype zebrafish larvae, 3 to 96 hpf; type: in vivo, Danio rerio; settings: higher concentration than the working concentration
Method: Determination of NOEC was achieved through an Acute Toxicity test performed on AB wildtype larvae from 3 to 96 hpf, as previously described ([Cornet et al., 2017]) (see Supplementary Table 1 for NOEC data for each compound). […] Larvae were immersed in E3 with PTU 0.2 mM and Tricaine methanesulfonate (Sigma-Aldrich, No. E10521) at 168 mg/ml working concentration and distributed in 96-well plates in 100 µl per well. Then, 100 µl of compound solution was added at double NOEC concentration to reach the working concentration per compound: NOEC, DMSO 1%, and the final volume of 200 µl per larva per well. Negative control larvae were incubated in 200 µl 1% DMSO. Embryos were allowed to incubate in the compound solution for 4 h before. […] Twelve embryos (1 embryo/well) were imaged for each compound, and the screening of the whole library was distributed over 15 experimental days. On each experimental day, 8 molecules were imaged: 7 drugs and the negative control 1% DMSO, to allow intraexperimental comparison.

[5] = tested on: hERG; design: method as in Guo et al., 2007; Shi et al., 2015; settings: human patients and rat cardiomyocytes; ref Guo et al., 2007; Shi et al., 2015; cited from earlier work
[6] = 5 dpf larvae, 4 h incubation at NOEC, 1% DMSO, positive if any numerical feature significant or flag incidence above 30%

Compound | market withdrawal due to cardiovascular adverse effects ([2]; humans) | detection as cardiotoxic in hiPSC-CMs (hiPSC-CM positive) [3] | detection as cardiotoxic in zebrafish (zebrafish positive) ([1]; in vivo) | other results
COc1ccc(CCN2CCC(Nc3nc4ccccc4n3Cc3ccc(F)cc3)CC2)cc1 [Astemizole] | withdrawn from the market due to cardiotoxicity concerns | TP molecules for both models |  | Bigeminy ([1]; in vivo): Bigeminy; cardiovascular clinical adverse effects ([2]; humans): promote cardiovascular clinical adverse effects through both the parent drug and metabolites
CC(C)COCC(CN(Cc1ccccc1)c1ccccc1)N1CCCC1 (stereo not drawn) [Bepridil] | withdrawn from the market |  | detection | 
CC(C)C[C@H]1C(=O)N2CCC[C@H]2[C@]2(O)O[C@](NC(=O)[C@@H]3C=C4c5cccc6[nH]c(Br)c(c56)C[C@H]4N(C)C3)(C(C)C)C(=O)N12 [Bromocriptine] | withdrawn from the market |  |  | detection in zebrafish due to features other than ventricular BPM ([1]; 5 dpf larvae, 4 h incubation at NOEC): detected for effects in features other than BPM; also recorded: enabled the detection; irregular beating of the heart (arrhythmia) ([1]; 5 dpf larvae, 4 h incubation at NOEC, representative example): arrhythmia; time point of detection in hiPSC-CMs [3]: detected only at T3; also recorded: only detected as cardiotoxic through the late assessment
Cc1ccc(-c2cc(C(F)(F)F)nn2-c2ccc(S(N)(=O)=O)cc2)cc1 [Celecoxib] | withdrawn from the market due to cardiotoxicity concerns | failed to detect; also recorded: did not even detect | could detect all | 
COc1cc(N)c(Cl)cc1C(=O)NC1CCN(CCCOc2ccc(F)cc2)CC1OC (stereo not drawn) [Cisapride] | withdrawn from the market due to cardiotoxicity concerns |  | could detect all | Bigeminy ([1]; in vivo): Bigeminy
CN1CCN(C2=Nc3cc(Cl)ccc3Nc3ccccc32)CC1 [Clozapine] | withdrawn from the market |  |  | 
CCN[C@@H](C)Cc1cccc(C(F)(F)F)c1 [Dexfenfluramine] | withdrawn from the market due to cardiotoxicity concerns | failed to detect |  | detection as cardiotoxic in zebrafish (zebrafish positive) [1, 6]: could detect all
CN(CCOc1ccc(NS(C)(=O)=O)cc1)CCc1ccc(NS(C)(=O)=O)cc1 [Dofetilide] | withdrawn from the market |  | detection | 
O=C(O[C@@H]1C[C@@H]2C[C@H]3C[C@H](C1)N2CC3=O)c1c[nH]c2ccccc12 [Dolasetron] |  | failed to detect | could detect all | 
COc1cccc2c1C(=O)c1c(O)c3c(c(O)c1C2=O)C[C@@](O)(C(=O)CO)C[C@@H]3O[C@H]1C[C@H](N)[C@H](O)[C@H](C)O1 [Doxorubicin] |  |  |  | cardiotoxicity in humans ([2]; ref Raj et al., 2014): promotes both acute and chronic cardiotoxicity in humans
O=C(CCCN1CC=C(n2c(=O)[nH]c3ccccc32)CC1)c1ccc(F)cc1 [Droperidol] | withdrawn from the market |  |  | 
CCCCCCCN(CC)CCCC(O)c1ccc(NS(C)(=O)=O)cc1 (stereo not drawn) [Ibutilide] |  |  |  | cardiotoxicity in humans ([2]; ref Stambler et al., 1997): can induce or worsen ventricular arrhythmias with fatal consequences
CC(C)NCC(O)c1cc(O)cc(O)c1 (stereo not drawn) [Metaproterenol] | withdrawn from the market due to cardiotoxicity concerns |  | could detect all | 
COCCc1ccc(OCC(O)CNC(C)C)cc1 (stereo not drawn) [Metoprolol] |  |  |  | irregular beating of the heart (arrhythmia) ([1]; in vivo): arrhythmia
CCCN1C[C@H](CSC)C[C@@H]2c3cccc4[nH]cc(c34)C[C@H]21 [Pergolide] | withdrawn from the market | failed to detect; also recorded: neither model detected |  | clinical adverse effect leading to withdrawal ([2]; humans, no reference given): valvulopathies
CC(Cc1ccccc1)NCCC(c1ccccc1)c1ccccc1 (stereo not drawn) [Prenylamine] | withdrawn from the market |  |  | developmental defects in the acute toxicity test [4]: strong developmental defects
CC(C)(Sc1cc(C(C)(C)C)c(O)c(C(C)(C)C)c1)Sc1cc(C(C)(C)C)c(O)c(C(C)(C)C)c1 [Probucol] |  | failed to detect; also recorded: cannot detect | detection | effect on hERG activity [5]: interfere with hERG activity; arrhythmic phenotypes in hiPSC-CMs [3]: does not show arrhythmic phenotypes
CC(C)NCC(O)COc1cccc2ccccc12 (stereo not drawn) [Propranolol] |  |  |  | heart rate (ventricular BPM) phenotype ([1]; in vivo): bradycardia
CNCC(O)c1ccc(O)c(O)c1 (stereo not drawn) [Racepinephrine] | withdrawn from the market |  | detection | heart rate (ventricular BPM) phenotype ([1]; in vivo): tachycardia
CS(=O)(=O)c1ccc(C2=C(c3ccccc3)C(=O)OC2)cc1 [Rofecoxib] | withdrawn from the market due to cardiotoxicity concerns | failed to detect; also recorded: did not even detect |  | cardiovascular clinical adverse effects ([2]; humans): heart attack and stroke
CC(C)CC(N(C)C)C1(c2ccc(Cl)cc2)CCC1 (stereo not drawn) [Sibutramine] | withdrawn from the market due to cardiotoxicity concerns | TP molecules for both models |  | detection as cardiotoxic in zebrafish (zebrafish positive) [1, 6]: could detect all; also recorded: TP molecules for both models; cardiovascular clinical adverse effects ([2]; humans): promote cardiovascular clinical adverse effects through both the parent drug and metabolites; time point of detection in hiPSC-CMs [3]: detected only at T3; also recorded: only detected as cardiotoxic through the late assessment
